# Test results from patent US20110028499A1, “PHARMACEUTICAL COMBINATION COMPRISING VITAMIN K” (SHIONOGI & CO., LTD., priority 2005, published 2011).
# Several values for one entry are separate records, joined by “and”; a condition that tells them apart may be missing. Identical values can stand only once. Entries after “also recorded” stand apart in the source; their conditions may differ.
# Legend:
# [1] = tested on: male Sprague-Dawley rats; assay: Example 1: PT, APTT and Fbg in rat plasma after 7-day repeated gavage administration; assay type: in vivo; conditions: 300 mg/kg/day gavage, 7 days; for PT and APTT compared with Controls / APTT / Fbg / PT: rat
# [2] = tested on: male Sprague-Dawley rats; assay: Example 2: PT, APTT and Fbg in rat plasma after 1, 2 and 3 administrations; assay type: in vivo; conditions: 300 mg/kg/day oral, blood on next day, mean
# [3] = tested on: extrinsic and intrinsic blood coagulation factors; assay: Example 2: activities of extrinsic and intrinsic blood coagulation factors in rat plasma (factor deficient plasma method); assay type: in vivo; conditions: 300 mg/kg/day oral, mean, % of intact rat plasma
# [4] = tested on: male Sprague-Dawley rats; assay: Example 3: PT, APTT and Fbg in rats given Compound (a) and/or vitamin K1 for 3 days; assay type: in vivo; conditions: rat; for APTT / Fbg / PT: mean
# Procedure: (§1) 4-week-old male Sprague-Dawley rats (Crj:CD(SD)IGS, SPF) were purchased from CHARLES RIVER LABORATORIES JAPAN, INC., Hino Breeding Center. […] Administeration was started at. […] Subcutaneous administeration was a 3-day administeration (3 or 200 μg/kg/day) into the back skin with injection syringe attached with a subcutaneous 1⁄4 needle at 1 mL/kg/day. Oral administeration was a 3-day repeated gavage administeration (200 μg/kg/day) with gastric tube for rats at. 4 mL/kg/day. Dosing volume was calculated based on body weight measured on that day. […] Activities of Vitamin K-dependent coagulation factors ([…]) were also) measured with the same blood plasma samples according to Example 2.
# [5] = tested on: Vitamin K-dependent coagulation factors (F-II, F-VII, F-X, F-IX); assay: Example 3: activities of vitamin K-dependent coagulation factors in rats given Compound (a) and/or vitamin K1; assay type: in vivo; conditions: rat, 3 days; for F-II activity / F-IX activity / F-VII activity / F-X activity: mean
# Procedure: as §1
# [6] = tested on: male Sprague-Dawley rats; assay: Example 4: PT, APTT and Fbg in rats given Compound (a) with or without vitamin K1 for 7 days; assay type: in vivo; conditions: rat; for APTT / Fbg / PT: Compound (a) only 200 mg/kg oral
# Procedure: 4-week-old male Sprague-Dawley rats (Crl:CD(SD), SPF) were purchased from CHARLES RIVER LABORATORIES JAPAN, INC., Hino Breeding Center. […] 0.005% (v/v) solution of vitamin K1 (TOYO Pharma Co., Ltd., 30 mg/3 mL) was prepared just before use with a vehicle of water for injection (Otsuka Pharmaceutical Factory, Inc.). […] Dosing volume was calculated based on body weight, measured on that day. […] The rats were dissected after collecting the blood and a visual inspection of skeletal muscle (soleus muscle) was carried out. After that, the muscle was fixed with 10% neutral buffered formalin, paraffin section was routinely processed, and a histological examination was carried out with an optical microscope after hematoxylin and eosin staining.
# [7] = tested on: skeletal muscle (soleus muscle); assay: Example 4: histological examination of skeletal muscle (soleus muscle); assay type: in vivo; design: key: (±): slight; (+): mild; conditions: rat, Compound (a) only 200 mg/kg oral, 7 days; individual animal
# [8] = disclosed in WO01/00603; cited from earlier work
# [9] = target: human PPARδ (hPPARδ) (Homo sapiens, UniProt Q03181); assay: cell-based
# [10] = Compound (a) only 300 mg/kg oral
# [11] = Compound (a) only 300 mg/kg/day
# [12] = individual animal, 300 mg/kg/day
# [13] = vitamin K1 only 200 μg/kg subcutaneous
# Sequence of human PPARδ (hPPARδ) (Q03181 139-441 limits assumed): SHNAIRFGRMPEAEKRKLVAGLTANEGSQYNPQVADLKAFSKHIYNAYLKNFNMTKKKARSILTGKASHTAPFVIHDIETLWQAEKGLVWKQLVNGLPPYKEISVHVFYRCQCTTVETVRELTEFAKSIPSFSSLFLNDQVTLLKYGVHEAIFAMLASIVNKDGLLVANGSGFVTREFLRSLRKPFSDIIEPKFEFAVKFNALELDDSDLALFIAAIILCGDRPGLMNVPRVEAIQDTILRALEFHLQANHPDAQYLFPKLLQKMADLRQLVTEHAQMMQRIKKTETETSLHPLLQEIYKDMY
compound,measurement,setting,value
"Cc1cc(SCc2sc(-c3ccc(C(F)(F)F)cc3)nc2C)ccc1OCC(=O)O [Compound (a), GW501516]",rats died,[1]; 4 animals in the group,3
same,PT and APTT compared with Controls,[1],prolonged
same,APTT,"[1]; blood on next day, group mean",46.4 s
same,Fbg,"[1]; blood on next day, group mean",173.3 mg/dL
same,PT,"[1]; blood on next day, group mean",26.9 s
same,APTT,[1]; individual animal,46.4 s
same,Fbg,[1]; individual animal,173.3 mg/dL
same,PT,[1]; individual animal,26.9 s
same,APTT,[2]; 1 dose,19.9 s
same,Fbg,[2]; 1 dose,200.1 mg/dL
same,PT,[2]; 1 dose,14.6 s
same,APTT,[2]; 2 doses,25.5 s
same,Fbg,[2]; 2 doses,198.8 mg/dL
same,PT,[2]; 2 doses,18.3 s
same,APTT,[2]; 3 doses,30.7 s
same,Fbg,[2]; 3 doses,175.7 mg/dL
same,PT,[2]; 3 doses,21.7 s
same,F-II activity,[3]; 1 dose,60.8%
same,F-IX activity,[3]; 1 dose,62.5%
same,F-V activity,[3]; 1 dose,93.3%
same,F-VII activity,[3]; 1 dose,57.7%
same,F-VIII activity,[3]; 1 dose,99.2%
same,F-X activity,[3]; 1 dose,68.3%
same,F-XI activity,[3]; 1 dose,84.0%
same,F-XII activity,[3]; 1 dose,79.4%
same,F-II activity,[3]; 2 doses,24.2%
same,F-IX activity,[3]; 2 doses,34.2%
same,F-V activity,[3]; 2 doses,90.6%
same,F-VII activity,[3]; 2 doses,17.1%
same,F-VIII activity,[3]; 2 doses,94.2%
same,F-X activity,[3]; 2 doses,44.7%
same,F-XI activity,[3]; 2 doses,76.0%
same,F-XII activity,[3]; 2 doses,80.7%
same,F-II activity,[3]; 3 doses,15.1%
same,F-IX activity,[3]; 3 doses,24.6%
same,F-V activity,[3]; 3 doses,93.0%
same,F-VII activity,[3]; 3 doses,8.8%
same,F-VIII activity,[3]; 3 doses,101.2%
same,F-X activity,[3]; 3 doses,32.4%
same,F-XI activity,[3]; 3 doses,71.0%
same,F-XII activity,[3]; 3 doses,78.6%
same,APTT,[4]; [10],30.2 s
same,Fbg,[4]; [10],177.8 mg/dL
same,PT,[4]; [10],23.0 s
same,PT and APTT compared with the intact group,[4]; [11],more prolonged
same,F-II activity,[5]; [10],13.8%
same,F-IX activity,[5]; [10],27.7%
same,F-VII activity,[5]; [10],6.3%
same,F-X activity,[5]; [10],29.9%
same,activities of vitamin K-dependent coagulation factors compared with the intact group,[5]; [11],lowered
same,APTT,[6]; individual animal,34.1 s and 67.1 s
same,Fbg,[6]; individual animal,199.7 mg/dL and 227.2 mg/dL
same,PT,[6]; individual animal,19.1 s and 35.5 s
same,APTT,[6]; mean,50.6 s
same,Fbg,[6]; mean,213.5 mg/dL
same,PT,[6]; mean,27.3 s
same,prothrombin time and activated partial thromboplastin time,[6]; Compound (a) only 200 mg/kg/day,prolonged
same,Histological examination Soleus muscle: Necrosis,[7],Necrosis (+); also recorded: Necrosis (±)
same,elevation of HDL,[8],high elevation of HDL; also recorded: HDL-raising
CCO/N=C/c1c(CSc2ccc(C(C)CC(=O)O)cc2OC)noc1-c1ccc(C(F)(F)F)cc1 (centres unmarked) [Compound (b)],PT and APTT compared with Controls,[1],prolonged
same,APTT,"[1]; blood on next day, group mean",31.3 s
same,Fbg,"[1]; blood on next day, group mean",204.5 mg/dL
same,PT,"[1]; blood on next day, group mean",18.6 s
same,APTT,[1]; [12],29.1 s and 28.2 s and 30.7 s and 37.3 s
same,Fbg,[1]; [12],217.9 mg/dL (2×) and 208.9 mg/dL and 173.3 mg/dL
same,PT,[1]; [12],17.4 s and 18.6 s and 16.4 s and 22.0 s
same,EC50,[9],1.3 nM
Cc1c(CSc2ccc([C@@H](C)CC(=O)O)cc2)noc1-c1ccc(C(F)(F)F)cc1 [Compound (c)],PT and APTT compared with Controls,[1],prolonged
same,APTT,"[1]; blood on next day, group mean",43.9 s
same,Fbg,"[1]; blood on next day, group mean",204.8 mg/dL
same,PT,"[1]; blood on next day, group mean",24.5 s
same,APTT,[1]; [12],21.9 s and 41.8 s and 68.2 s and 43.8 s
same,Fbg,[1]; [12],201.8 mg/dL and 179.6 mg/dL and 193.8 mg/dL and 243.9 mg/dL
same,PT,[1]; [12],13.6 s and 22.3 s and 35.9 s and 26.0 s
same,EC50,[9],18.9 nM
"CC1=C(C/C=C(\C)CCC[C@H](C)CCC[C@H](C)CCCC(C)C)C(=O)c2ccccc2C1=O [Vitamin K1, phylloquinone]",APTT,[4]; [13],15.9 s
same,Fbg,[4]; [13],200.3 mg/dL
same,PT,[4]; [13],15.3 s
same,"each item (PT, APTT, Fbg, factor activities) compared with the intact group",[4]; vitamin K1 only 200 μg/kg/day subcutaneous,no significant differences
same,F-II activity,[5]; [13],92.7%
same,F-IX activity,[5]; [13],100.2%
same,F-VII activity,[5]; [13],70.1%
same,F-X activity,[5]; [13],74.3%
